Common to all, as to assay type: biochemical
For one test, the target named is T1, MMP2 (Homo sapiens, UniProt P08253).
T1 sequence (P08253 110-660): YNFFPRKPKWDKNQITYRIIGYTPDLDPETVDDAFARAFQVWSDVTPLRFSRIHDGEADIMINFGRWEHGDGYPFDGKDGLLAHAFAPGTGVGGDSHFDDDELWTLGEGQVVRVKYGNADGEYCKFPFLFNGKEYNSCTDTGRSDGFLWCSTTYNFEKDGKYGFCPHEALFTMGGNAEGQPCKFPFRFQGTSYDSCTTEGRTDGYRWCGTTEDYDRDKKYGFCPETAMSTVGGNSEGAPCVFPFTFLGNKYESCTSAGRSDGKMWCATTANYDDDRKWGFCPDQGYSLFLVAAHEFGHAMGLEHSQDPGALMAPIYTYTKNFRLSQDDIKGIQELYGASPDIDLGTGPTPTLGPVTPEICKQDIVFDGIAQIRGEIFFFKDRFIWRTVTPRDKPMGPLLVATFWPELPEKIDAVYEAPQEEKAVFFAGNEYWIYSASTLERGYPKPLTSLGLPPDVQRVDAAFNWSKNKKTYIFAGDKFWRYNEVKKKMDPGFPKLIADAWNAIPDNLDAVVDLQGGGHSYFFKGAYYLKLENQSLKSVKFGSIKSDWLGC
Put plainly: MMP-2 colorimetric inhibition assay (Enzo kit BML-AK408). The note with it: thiopeptide substrate, absorbance 415 nm; read-out: MMP 2 IC50 class. The essentials: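 Cleavage of the thiopeptide Ac-PLG-[2-mercapto-4-methylpentanoyl]-LG-OC2H5 releases a sulfhydryl that reacts with DTNB, read at 415 nm per the kit protocol. IC50 values (nM) come from inhibition curves of normalized data.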

A further test concerns the target T2, MMP1 (Homo sapiens, UniProt P03956).
T2 sequence (P03956 100-269 limits assumed): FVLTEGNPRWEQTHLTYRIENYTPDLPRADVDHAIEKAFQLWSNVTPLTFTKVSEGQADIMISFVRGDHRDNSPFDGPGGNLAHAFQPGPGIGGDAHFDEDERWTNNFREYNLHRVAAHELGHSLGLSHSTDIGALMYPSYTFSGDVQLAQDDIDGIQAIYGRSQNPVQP
The test is described as follows: MMP-1 colorimetric inhibition assay (Enzo kit BML-AK404). The note with it: thiopeptide substrate, absorbance 415 nm; read-out: MMP 1 IC50 class. The essentials:
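Colorimetric kit run per manufacturer protocol. MMP-1 cleaves a thiopeptide substrate (Ac-PLG-[2-mercapto-4-methylpentanoyl]-LG-OC2H5); released thiol reacts with DTNB, monitored at 415 nm. IC50 (nM) from inhibition curves of normalized values.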

For a further test, the target named is T3, MMP13 (Homo sapiens, UniProt P45452).
T3 construct: purchased Enzo Life Sciences, Inc. BML-AK412
Put plainly: MMP-13 colorimetric inhibition assay (Enzo kit BML-AK412). To be noted: thiopeptide substrate, absorbance 415 nm; read-out: MMP 13 IC50 class. In outline: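 Thiopeptide chromogenic substrate (Ac-PLG-[2-mercapto-4-methylpentanoyl]-LG-OC2H5); MMP-13 hydrolysis of the thioester yields a thiol that reacts with DTNB, read at 415 nm. IC50 values (nM) derived from inhibition curves of normalized data.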

For a further test, the target named is ADAM17 (TACE) (Homo sapiens, UniProt P78536). The test is described as follows: TACE fluorometric inhibition assay (Enzo kit BML-AK310). The note with it: quenched fluorogenic peptide, ex/em 320/420 nm; read-out: TACE IC50 class. The essentials: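 Kit-based TACE assay run per manufacturer's protocol, using quenched fluorogenic peptide Mca-PLAQAV-Dpa-RSSSR-NH2 whose cleavage raises Mca fluorescence. Signal read at ex/em 320/420 nm; IC50 (nM) derived from inhibition curves of normalized values.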

The target in another test is T4, ADAM10 (Homo sapiens, UniProt O14672).
T4 construct: purchased AnaSpec, Inc. AS-72226
T4 sequence (O14672 214-748): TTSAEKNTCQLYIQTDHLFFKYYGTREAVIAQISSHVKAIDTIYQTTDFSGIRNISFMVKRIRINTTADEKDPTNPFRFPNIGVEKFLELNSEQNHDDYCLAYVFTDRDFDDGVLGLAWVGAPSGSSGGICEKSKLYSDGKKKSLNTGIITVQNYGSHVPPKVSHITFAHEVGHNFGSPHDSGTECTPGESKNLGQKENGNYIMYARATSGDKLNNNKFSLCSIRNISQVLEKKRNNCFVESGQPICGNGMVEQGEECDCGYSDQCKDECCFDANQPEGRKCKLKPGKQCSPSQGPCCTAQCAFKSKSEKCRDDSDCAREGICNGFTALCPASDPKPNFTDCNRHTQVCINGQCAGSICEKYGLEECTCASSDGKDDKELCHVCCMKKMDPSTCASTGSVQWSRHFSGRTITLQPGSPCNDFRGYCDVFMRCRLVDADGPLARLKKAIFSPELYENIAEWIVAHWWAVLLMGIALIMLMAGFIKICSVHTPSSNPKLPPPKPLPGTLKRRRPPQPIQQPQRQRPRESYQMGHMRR
The test is described as follows: SensoLyte 520 ADAM10 fluorometric activity assay (AnaSpec AS-72226). The procedure:
The inhibitory activities of the compounds of the invention were assessed in 96-well microplate format using MMP1, MMP2, MMP9 and MMP13 colorimetric assay kits and TACE fluorometric assay kit from Enzo Life Sciences, Inc. The inhibitory effect of the compounds of the invention on ADAM10 activity were evaluated in 96-well microplate format using fluorometric assay from AnaSpec, Inc.
SensoLyte® 520 ADAM10 Activity Assay Kit (catalog #AS-72226) is a complete assay system designed to screen ADAM10 inhibitors using FRET-based peptide substrate containing the 5-FAM/QXL™ 520 fluorophore/quencher pair. The fluorescence of 5-FAM is quenched by QXL™ 520 and recovered upon cleavage of the peptide by active ADAM10.
The inhibitory activity of the compounds of the invention against ADAM10 was tested according to the manufacturer's assay protocol and the fluorescence was monitored at excitation/emission wavelengths=495 nm/520 nm using Tecan Infinite® 200 Pro F Nano^+ microplate reader.
The normalized values were analyzed using GraphPadPrism 9 for Windows (GraphPad Software, San Diego, CA, USA) software by plotting inhibition curves and determining the IC50 values (in nM).

The target of the next test is MMP9 (Homo sapiens, UniProt P14780). The test is described as follows: MMP-9 colorimetric inhibition assay (Enzo kit BML-AK410). To be noted: thiopeptide substrate, absorbance 415 nm; read-out: MMP 9 IC50 class. The essentials: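 Colorimetric thioester-substrate assay: hydrolysis of Ac-PLG-[2-mercapto-4-methylpentanoyl]-LG-OC2H5 frees a thiol that reacts with DTNB, read at 415 nm. Run per kit protocol. IC50 (nM) taken from inhibition curves of normalized values.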

Where [1] appears, read: FRET peptide substrate, ex/em 495/520 nm, read-out: ADAM 10 IC50 class.

Each structure is given as a SMILES string. Read-outs that look alike come from different tables or passages of the source.

Chain of ADAM17 (TACE) (P78536 215-477 limits assumed): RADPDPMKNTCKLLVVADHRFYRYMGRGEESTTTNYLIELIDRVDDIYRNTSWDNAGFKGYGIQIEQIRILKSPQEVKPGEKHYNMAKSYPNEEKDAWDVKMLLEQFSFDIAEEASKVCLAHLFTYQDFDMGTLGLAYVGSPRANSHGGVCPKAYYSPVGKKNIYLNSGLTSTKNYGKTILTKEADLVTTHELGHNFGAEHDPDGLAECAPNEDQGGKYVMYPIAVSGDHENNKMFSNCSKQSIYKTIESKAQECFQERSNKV
Chain of MMP9 (P14780 94-707): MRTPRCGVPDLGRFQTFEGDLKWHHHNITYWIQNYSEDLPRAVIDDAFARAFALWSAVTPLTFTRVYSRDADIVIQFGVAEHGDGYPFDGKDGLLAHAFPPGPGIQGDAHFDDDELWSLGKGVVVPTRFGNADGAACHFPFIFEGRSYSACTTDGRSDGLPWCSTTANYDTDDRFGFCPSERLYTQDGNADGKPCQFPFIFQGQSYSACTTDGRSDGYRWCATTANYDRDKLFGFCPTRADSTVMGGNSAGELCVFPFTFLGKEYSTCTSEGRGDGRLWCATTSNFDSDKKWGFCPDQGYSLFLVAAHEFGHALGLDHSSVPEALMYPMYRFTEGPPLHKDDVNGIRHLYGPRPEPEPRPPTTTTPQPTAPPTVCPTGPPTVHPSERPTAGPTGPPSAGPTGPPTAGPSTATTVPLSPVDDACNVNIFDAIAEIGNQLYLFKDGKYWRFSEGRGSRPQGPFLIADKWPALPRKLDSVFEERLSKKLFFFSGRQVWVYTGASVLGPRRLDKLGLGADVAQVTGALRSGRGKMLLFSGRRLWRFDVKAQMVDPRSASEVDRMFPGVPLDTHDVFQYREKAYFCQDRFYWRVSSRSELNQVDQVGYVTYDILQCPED

As for `COCCOC(=O)N1[C@@H]2CC[C@H]1[C@H](C(=O)NO)N(S(=O)(=O)c1ccc(Oc3cnn(C)c3)nc1)C2` [Example 36, 2-methoxyethyl (1S,2R,5R)-2-(hydroxycarbamoyl)-3-((6-((1-methyl-1H-pyrazol-4-yl)oxy)-pyridin-3-yl)-sulfonyl)-3,8-diazabicyclo[3.2.1]-octane-8-carboxylate], the IC50 at MMP2 is < 50 nM; at MMP1 it was < 50 nM; on MMP13, < 50 nM; at ADAM17 (TACE), 50 to 1000 nM; on ADAM10 (setting [1]) it was 1000 to 10000 nM; at MMP9, < 50 nM.
As to `COCCOC(=O)N1[C@@H]2CC[C@H]1[C@H](C(=O)NO)N(S(=O)(=O)c1ccc(Oc3cnn(-c4ccccc4)c3)nc1)C2` [Example 39, 2-methoxyethyl (1S,2R,5R)-2-(hydroxycarbamoyl)-3-((6-((1-phenyl-1H-pyrazol-4-yl)oxy)-pyridin-3-yl)sulfonyl)-3,8-diazabicyclo-[3.2.1]octane-8-carboxylate], the IC50 was < 50 nM on MMP2; 50 to 1000 nM on MMP1; < 50 nM at MMP13; 50 to 1000 nM at ADAM17 (TACE); > 10000 nM on ADAM10 (setting [1]); < 50 nM on MMP9.
In the case of `COCCOC(=O)N1[C@@H]2CC[C@H]1[C@H](C(=O)NO)N(S(=O)(=O)c1ccc(Oc3cnn(C)c3)c(F)c1)C2` [Example 41, 2-methoxyethyl (1S,2R,5R)-3-((3-fluoro-4-((1-methyl-1H-pyrazol-4-yl)oxy)phenyl)sulfonyl)-2-(hydroxycarbamoyl)-3,8-diazabicyclo[3.2.1]octane-8-carboxylate], the IC50 is < 50 nM at MMP2; < 50 nM on MMP1; < 50 nM on MMP13; 50 to 1000 nM on ADAM17 (TACE); 50 to 1000 nM at ADAM10 (setting [1]); < 50 nM on MMP9.
Turning to `COCCOC(=O)N1[C@@H]2CC[C@H]1[C@H](C(=O)NO)N(S(=O)(=O)N1CCC(Oc3ccc(Cl)cc3)CC1)C2` [Example 44, (1S,2R,5R)-2-methoxyethyl 3-((4-(4-chlorophenoxy)piperidin-1-yl)sulfonyl)-2-(hydroxycarbamoyl)-3,8-diazabicyclo[3.2.1]octane-8-carboxylate], the IC50 is < 50 nM at MMP2; 50 to 1000 nM at MMP1; < 50 nM on MMP13; < 50 nM on ADAM17 (TACE); 50 to 1000 nM against ADAM10; < 50 nM on MMP9.
As to `COCCOC(=O)N1[C@@H]2CC[C@H]1[C@H](C(=O)NO)N(S(=O)(=O)N1CCC(Oc3ccc(F)cc3)CC1)C2` [Example 45, 2-methoxyethyl (1S,2R,5R)-3-((4-(4-fluoro-phenoxy)-piperidin-1-yl)-sulfonyl)-2-(hydroxy-carbamoyl)-3,8-diazabicyclo-[3.2.1]octane-8-carboxylate], the IC50 on MMP2 was < 50 nM; at MMP1, 50 to 1000 nM; on MMP13, < 50 nM; at ADAM17 (TACE), 50 to 1000 nM; on ADAM10 (setting [1]), 1000 to 10000 nM; at MMP9 it was < 50 nM.
Turning to `COCCOC(=O)N1[C@@H]2CC[C@H]1[C@H](C(=O)NO)N(S(=O)(=O)N1CCC(Oc3ccc(C(F)(F)F)cc3)CC1)C2` [Example 48, 2-methoxyethyl (1S,2R,5R)-2-(hydroxy-carbamoyl)-3-((4-(4-(trifluoromethyl)phenoxy)-piperidin-1-yl)-sulfonyl)-3,8-diazabicyclo-[3.2.1]octane-8-carboxylate], the IC50 at MMP2 is < 50 nM; at MMP1, 1000 to 10000 nM; on MMP13, < 50 nM; at ADAM17 (TACE), < 50 nM; at ADAM10, 50 to 1000 nM; on MMP9, < 50 nM.
As for `CC(=O)N1[C@@H]2CC[C@H]1[C@H](C(=O)NO)N(S(=O)(=O)c1ccc(Oc3ccc(F)cc3)nc1)C2` [Example 53, (1S,2R,5R)-8-acetyl-3-((6-(4-fluorophenoxy)pyridin-3-yl)sulfonyl)-N-hydroxy-3,8-diazabicyclo[3.2.1]octane-2-carboxamide], the IC50 is < 50 nM on MMP2; 50 to 1000 nM on MMP1; < 50 nM at MMP13; 1000 to 10000 nM at ADAM17 (TACE); > 10000 nM on ADAM10 (setting [1]); < 50 nM at MMP9.
On to `CC(=O)N1[C@@H]2CC[C@H]1[C@H](C(=O)NO)N(S(=O)(=O)c1ccc(Oc3ccc(OC(F)(F)F)cc3)nc1)C2` [Example 54, (1S,2R,5R)-8-acetyl-N-hydroxy-3-((6-(4-(trifluoromethoxy)-phenoxy)pyridin-3-yl)sulfonyl)-3,8-diazabicyclo[3.2.1]-octane-2-carboxamide], for which the IC50 is < 50 nM on MMP2; 1000 to 10000 nM at MMP1; < 50 nM at MMP13; 1000 to 10000 nM at ADAM17 (TACE); > 10000 nM at ADAM10 (setting [1]); < 50 nM on MMP9.
Consider `CCC(=O)N1[C@@H]2CC[C@H]1[C@H](C(=O)NO)N(S(=O)(=O)c1ccc(Oc3ccc(OC(F)(F)F)cc3)nc1)C2` [Example 55, (1S,2R,5R)-N-hydroxy-8-propionyl-3-((6-(4-(trifluoromethoxy)-phenoxy)pyridin-3-yl)sulfonyl)-3,8-diazabicyclo[3.2.1]-octane-2-carboxamide], for which the IC50 was < 50 nM on MMP2; 1000 to 10000 nM on MMP1; < 50 nM on MMP13; 1000 to 10000 nM at ADAM17 (TACE); > 10000 nM at ADAM10 (setting [1]); < 50 nM at MMP9.
Consider `CC(C)C(=O)N1[C@@H]2CC[C@H]1[C@H](C(=O)NO)N(S(=O)(=O)c1ccc(Oc3ccc(OC(F)(F)F)cc3)nc1)C2` [Example 56, (1S,2R,5R)-N-hydroxy-8-isobutyry1-3-((6-(4-(trifluoro-methoxy)phenoxy)-pyridin-3-yl)-sulfonyl)-3,8-diazabicyclo-[3.2.1]octane-2-carboxamide], for which the IC50 at MMP2 was < 50 nM; on MMP1 it was > 10000 nM; on MMP13, < 50 nM; on ADAM17 (TACE), 1000 to 10000 nM; on ADAM10 (setting [1]) it was > 10000 nM; at MMP9, < 50 nM.

For orientation: IC50 means the concentration that inhibits the measured activity by half.

The values are drawn from patent publication US20250215010A1, “DIAZABICYCLOOCTANE DERIVATIVES USEFUL AS MATRIX METALLOPROTEINASE INHIBITORS” (VASA THERAPEUTICS SPOLKA Z OGRANICZONA ODPOWIEDZIALNOSCIA, priority 2022, published 2025).
